Results taken from patent publication US11819499B2, “Single-dose, ready-to-use injectable formulations” (BioSplice Therapeutics, Inc., priority 2016, dated 2023).
Marks after values point to notes of the source that are not given here.

Legend:
Assay type in all cases: physicochemical
[1] = Dynamic vapor sorption (DVS) scan
Source text: The purity of the Form 13 sample was 98.8%; the KF of an undried Form 13 sample was 35.7%.

[2] = Drying or heating in a DSC chamber followed by XRD (form conversion)
Method: The Form 1 solid was dried at 75° C. under vacuum overnight, and XRD, DSC, and TGA scans were performed. […] However, the DSC scans indicated the absence of endotherm. The loss of the early peak on the DSC scan had no effect on the XRD trace, showing that the wide endotherm between 50-100° C. on DSC scan was due to the free solvent.
The Form 1 solid was heated in a DSC chamber to 305° C. (past the endotherm/exotherm around 280° C.), and then scanned by XRD. […] It can be concluded that the endotherm/exotherm around 280° C. might be due to melting/crystallization events.
The Form 2 solid was heated in a DSC machine to 90° C. (past the wide endotherm between 50-100° C.); to 270° C. (past the endotherm/exotherm around 240° C.); and finally to 330° C. (past the […]). The residual solid was analyzed by XRD. […] The wide endotherm between 50-100° C. might be free solvent or hydrate. […] Thus, the exotherm around 290° C. was a re-crystallization event. According to an XRD and DSC overlay, the behavior of Form 2* was similar to Form 2.
This has been confirmed for Forms 1 and 2.
Form 13 solid was heated in a DSC chamber to 170° C. (past the endotherm between 50-100° C.), and then scanned by XRD. […] It can be concluded that the endotherm between 50-100° C. is due to bonded water.
Form 13 solid was heated in a DSC chamber to 330° C. (past the endotherm/exotherm around 300° C.), and then scanned by XRD. […] It can be concluded that the endotherm/exotherm is due to melting/crystallization events.

[3] = Competitive slurry experiments between polymorph forms (15 forms mixed, 3-5 days, XRD)
Method: In order to find out the thermodynamic stability between the different forms, several competitive slurry experiments were carried out. Form 1, Form 2, Form 2*, Form 3, Form 4, Form 4*, Form 4**, Form 5, Form 7, Form 8, Form 9, Form 10, Form 11, Form 11*, and Form 13 (10 mg for each) was mixed and slurried in 2 mL of solvent at both RT and 50° C. The solids were slurried for 3-5 days and then analyzed by XRD.

[4] = Exposure to relative humidity / air followed by XRD; conditions: for XRD after drying at 50° C. under vacuum: after air exposure overnight, then dried at 50° C. under vacuum; for XRD after exposure to air overnight: exposed to air overnight
Source text: FIGS. 15A-15D are scans of Form 1 in the presence of increasing relative humidity (RH), an example of a non-stoichiometric or stoichiometric hydrate of polymorph Form 1 of the compound of Formula (I). FIG. 15A is an x-ray powder diffraction scan of Form 1 exposed to 10% RH as the anhydrous Form 1. FIG. 15B is an x-ray powder diffraction scan of Form 1 exposed to 20% RH as a partial hydrate of Form 1. FIG. 15C is an x-ray powder diffraction scan of Form 1 exposed to 30% RH as a hydrate of Form 1 (≈10-12% water uptake). FIG. 15D is an x-ray powder diffraction scan of Form 1 exposed to 90% RH as a full hydrate of Form 1 (≈17-20% water uptake). […] The hydrate lost its water below 30% RH. […] The crystal lattice of Form 1 expanded when water was sorbed, giving rise to XRD peaks at ˜5, ˜7 and ˜11 degrees while maintaining the main XRD pattern. The hydrates of Form 1 of a compound of Formula (I) (Form 11) were fully reversible, and lost water when exposed to % RH of less than 20%, turning Form 11 to hydrated forms of Form 1 and to the anhydrous Form 1. Solvates 1 and 2 solids were exposed to air overnight, and then analyzed by XRD. After the analysis, the solids were dried at 50° C. under vacuum, and then analyzed by XRD again.

[5] = Reslurry experiments (polymorph screen) in 39 pure and binary solvents at RT and 50° C. for 5 days, XRD of wet and dry samples
Method: Reslurry experiments in various solvents were performed. Approximately 30-80 mg of the starting solid (a non-stoichiometric or stoichiometric hydrate of Form 1 having between 1% and about 20% by weight water) was slurried in 39 different solvents (pure and binary solvents; the ratio of organic solvent/water (V/V) was 95%/5%) at RT and 50° C. for 5 days. Three solvates, one hydrate, and eleven non-solvated forms were identified. […] XRD of both wet and dry samples were scanned (FIG. 12A (dry sample)).
The slurry experiments identified 3 solvated forms from wet samples (Solvates 1, 2, and 3); 2 non-stoichiometric hydrates of Form 1 (Forms 12 and 13); and 11 non-solvated forms (Forms 1-11). In some instances, similar XRD scans with minor differences were obtained. These were considered to be part of the same class (e.g., the same form). For example, XRD scans of Form 2 and Form 2* were similar and were considered to belong to the same class. The solvated forms were obtained from wet sample analysis; after drying, the sample indicated a different XRD.
Solvate 1 was obtained from acetone at RT, and after drying, a low crystallinity solid was generated. Solvate 2 was obtained from acetone (at RT) and acetone/water (at RT), and after drying, Form 4** was generated. Solvate 3 was obtained from EtOH/water at RT, and after drying, Form 2 was generated.

[6] = reslurry in Acetone/water (5% water), RT
[7] = reslurry in Acetonitrile/water (5% water), RT
[8] = reslurry in EA/water (5% water), RT
[9] = reslurry in Heptane/water (5% water), RT
[10] = reslurry in IPAc/water (5% water), RT
[11] = reslurry in MA/water (5% water), 50° C.
[12] = reslurry in MIBK/water (5% water), RT
[13] = reslurry in MeOH/water (5% water), RT
[14] = reslurry in MtBE/water (5% water), RT
[15] = reslurry in n-Butyl acetate/water (5% water), RT
[16] = reslurry in EtOH/water (5% water), RT

Compound: CC(C)CC(=O)Nc1cncc(-c2ccc3[nH]nc(-c4nc5c(-c6cccc(F)c6)cncc5[nH]4)c3c2)c1 [Form 9, N-(5-(3-(7-(3-fluorophenyl)-3H-imidazo[4,5-c]pyridin-2-yl)-1H-indazol-5-yl)pyridin-3-yl)-3-methylbutanamide]
- form before and after the DVS scan ([1]; DVS scan): did not change its form
- water absorption (DVS scan) ([1]; at 90% RH): 0.8%

Compound: CC(C)CC(=O)Nc1cncc(-c2ccc3[nH]nc(-c4nc5c(-c6cccc(F)c6)cncc5[nH]4)c3c2)c1 [Form 2, N-(5-(3-(7-(3-fluorophenyl)-3H-imidazo[4,5-c]pyridin-2-yl)-1H-indazol-5-yl)pyridin-3-yl)-3-methylbutanamide]
- form after heating (XRD) ([2]; heated in a DSC machine to 90° C.): did not change
- form after heating (XRD) ([2]; heated to 270° C.): converted to low crystalline solids
- form after heating (XRD) ([2]; heated to 330° C.): converted to Form 9
- form when heated to just before melting ([2]; heated to just before melting at 364° C.): convert to Form 9
- thermodynamic stability between forms (competitive slurry) ([3]; MeOH, EtOH, and acetone system at both RT and 50° C.): most stable form

Compound: CC(C)CC(=O)Nc1cncc(-c2ccc3[nH]nc(-c4nc5c(-c6cccc(F)c6)cncc5[nH]4)c3c2)c1 [Solvate 1, N-(5-(3-(7-(3-fluorophenyl)-3H-imidazo[4,5-c]pyridin-2-yl)-1H-indazol-5-yl)pyridin-3-yl)-3-methylbutanamide]
- XRD after drying at 50° C. under vacuum [4]: still low crystallinity solid
- XRD after exposure to air overnight [4]: converted to low crystallinity
- Dry (form by XRD) ([5]; reslurry in Acetone, RT): Low
- Wet (form by XRD) ([5]; reslurry in Acetone, RT): Solvate 1

Compound: CC(C)CC(=O)Nc1cncc(-c2ccc3[nH]nc(-c4nc5c(-c6cccc(F)c6)cncc5[nH]4)c3c2)c1 [Form 11, N-(5-(3-(7-(3-fluorophenyl)-3H-imidazo[4,5-c]pyridin-2-yl)-1H-indazol-5-yl)pyridin-3-yl)-3-methylbutanamide]
- RH below which the hydrate lost its water ([4]; relative humidity): less than 20%

Compound: CC(C)CC(=O)Nc1cncc(-c2ccc3[nH]nc(-c4nc5c(-c6cccc(F)c6)cncc5[nH]4)c3c2)c1 [Solvate 2, N-(5-(3-(7-(3-fluorophenyl)-3H-imidazo[4,5-c]pyridin-2-yl)-1H-indazol-5-yl)pyridin-3-yl)-3-methylbutanamide]
- XRD after drying at 50° C. under vacuum [4]: remained the same as the solid exposed to air overnight
- XRD after exposure to air overnight [4]: changed a little
- Dry (form by XRD) ([5]; reslurry in Acetone, 50° C.): Form 4**
- Wet (form by XRD) ([5]; reslurry in Acetone, 50° C.): Solvate 2
- Dry (form by XRD) [5, 6]: Form 4**
- Wet (form by XRD) [5, 6]: Solvate 2

Compound: CC(C)CC(=O)Nc1cncc(-c2ccc3[nH]nc(-c4nc5c(-c6cccc(F)c6)cncc5[nH]4)c3c2)c1 [Form 12, N-(5-(3-(7-(3-fluorophenyl)-3H-imidazo[4,5-c]pyridin-2-yl)-1H-indazol-5-yl)pyridin-3-yl)-3-methylbutanamide]
- Dry (form by XRD) [5, 7]: Form 1
- Wet (form by XRD) [5, 7]: Form 12
- Dry (form by XRD) [5, 8]: Form 1
- Wet (form by XRD) [5, 8]: Form 12
- Dry (form by XRD) [5, 9]: Form 12
- Wet (form by XRD) [5, 9]: Form 13
- Dry (form by XRD) [5, 10]: Form 1
- Wet (form by XRD) [5, 10]: Form 12
- Dry (form by XRD) [5, 11]: Form 4
- Wet (form by XRD) [5, 11]: Form 12
- Dry (form by XRD) [5, 12]: Form 1
- Wet (form by XRD) [5, 12]: Form 12
- Dry (form by XRD) [5, 13]: Form 1
- Wet (form by XRD) [5, 13]: Form 12
- Dry (form by XRD) [5, 14]: Form 1
- Wet (form by XRD) [5, 14]: Form 12
- Dry (form by XRD) [5, 15]: Form 12
- Wet (form by XRD) [5, 15]: Form 13

Compound: CC(C)CC(=O)Nc1cncc(-c2ccc3[nH]nc(-c4nc5c(-c6cccc(F)c6)cncc5[nH]4)c3c2)c1 [Solvate 3, N-(5-(3-(7-(3-fluorophenyl)-3H-imidazo[4,5-c]pyridin-2-yl)-1H-indazol-5-yl)pyridin-3-yl)-3-methylbutanamide]
- Dry (form by XRD) [5, 16]: Form 2
- Wet (form by XRD) [5, 16]: Solvate 3

Compound: CC(C)CC(=O)Nc1cncc(-c2ccc3[nH]nc(-c4nc5c(-c6cccc(F)c6)cncc5[nH]4)c3c2)c1 [Form 4, N-(5-(3-(7-(3-fluorophenyl)-3H-imidazo[4,5-c]pyridin-2-yl)-1H-indazol-5-yl)pyridin-3-yl)-3-methylbutanamide]
- thermodynamic stability between forms (competitive slurry) ([3]; EA at RT and 50° C.): most stable
